Laboratory results published in patent publication US20220387358A1, “CERAMIDE ANALOG SACLAC MODULATES SPHINGOLIPID LEVELS AND MCL-1 SPLICING TO INDUCE APOPTOSIS IN ACUTE MYELOID LEUKEMIA” (University of Virginia Patent Foundation, priority 2019, published 2022).
Where two headings read alike, the source gives them in different places.

Key:
acid ceramidase (AC) = molecular target: T1, acid ceramidase (AC) (Homo sapiens, UniProt Q13510); assay: Acid ceramidase activity assay (RBM14C12 fluorogenic substrate) in human AML cell lines; assay type: cell-based; details: SACLAC 2.5 μM, 24-hour treatment
T1 construct: endogenous in cells; host or cells: HL-60/VCR, THP-1 and OCI-AML2 human AML cell lines
T1 sequence (Q13510 143-395 limits assumed): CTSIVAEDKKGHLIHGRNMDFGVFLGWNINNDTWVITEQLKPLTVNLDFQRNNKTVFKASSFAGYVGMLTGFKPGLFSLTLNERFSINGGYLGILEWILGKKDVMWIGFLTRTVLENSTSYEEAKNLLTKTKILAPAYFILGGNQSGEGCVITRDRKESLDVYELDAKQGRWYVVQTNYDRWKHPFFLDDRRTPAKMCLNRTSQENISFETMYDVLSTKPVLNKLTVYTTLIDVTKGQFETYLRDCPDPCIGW
T1 sequence (Q13510 22-142 limits assumed): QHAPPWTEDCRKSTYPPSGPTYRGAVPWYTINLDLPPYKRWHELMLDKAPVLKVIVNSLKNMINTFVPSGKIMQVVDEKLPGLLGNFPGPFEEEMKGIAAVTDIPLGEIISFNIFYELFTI
Description: Cells were seeded at 2×10^4 cells per well in 50 μl Acid ceramidase activity was measured at 24 hours using the RBM14C12 fluorogenic substrate as previously described (22,34).

30 human AML cell lines = assay: Cell viability MTS assay, panel of cell lines; assay type: cell-based; details: 24 and 48-hour time points
Description: For cell viability, cell lines were plated at 2.5×10^4 cells per well in a 96-well plate and treated with […] or DMSO vehicle (0.4% of total volume) for the indicated time points and doses. At the experiment end point, 3-(4,5-Dimethylthiazol-2-yl)-5-(3-carboxymethoxyphenyl)-2-(4-sulfophenyl)-2H-tetrazolium (MTS) Cell Proliferation Colorimetric Assay Kit (# K300-5000, BioVision, Inc., Milpitas, Calif., United States of America) reagent was added and incubated for 2 hours. Conversion of MTS to formazan product was measured by absorbance at 490 nm using a BioTek Cytation 3 plate reader (BioTeck, Winooski, Vt., United States of America). Absorbance was normalized to DMSO control, which was defined as 100% viability. Due to limited cell numbers, patient samples and normal samples were plated at 5×10^3 cells per well in a 384-well plate with […] or DMSO control for the indicated time points and doses. At the experiment end point, a luminescent reagent sold under the tradename [sequence]-GLOTM (#G7572, Promega Corporation, Madison, Wis., United States of America) was added. After 15 minutes, luminescence was read on a BioTek Cytation 3 plate reader (BioTek, Winooski, Vt., United States of America). Absorbance was normalized to DMSO control, which was defined as 100% viability.

OCI-AML2 cells = assay: Apoptosis by flow cytometry (Annexin V); assay type: cell-based, human; details: SACLAC 5 μM
Description: Apoptosis in cell lines was assessed after treating 2.5×10^5 cells per ml with drug or vehicle in a 48-well plate for the indicated time points and doses. Primary human AML cells were pre-incubated with SFEM for 48 hours before plating 2×10^5 cells in 24-well plates for the indicated times point and doses. Samples were stained using the Muse Annexin V & Dead Cell Kit (Millipore #MCH100105). Change in mitochondrial membrane potential in cell lines was measured with the Muse® MitoPotential Kit (#MCH100110, MilliporeSigma, Burlington, Mass., United States of America). Caspase activation was measured using the Muse® Caspase 3/7 Assay Kit (#MCH100108, MilliporeSigma, Burlington, Mass., United States of America). For rescue experiments, cells were plated at 2.5×10^4 well in a 96-well plate 24 hours after electroporation. Cells were treated with DMSO or SACLAC for 48 hours and apoptosis was detected as stated above. All kits were used according to manufacturer's protocol. Cells were then analyzed using the Muse® Cell Analyzer (MilliporeSigma, Burlington, Massachusetts, United States of America) (35,36). Experiments included positive and negative controls for proper analysis.

U937 AML cells = assay: U937 AML xenograft model in NSG mice; assay type: in vivo; details: 5 mg/kg tail-vein, five times per week, 15 injections
Description: MV4-11 AML cells expressing luciferase (luc2) and YFP (39) or U937 AML cells expressing luc2 and tdTomato (#72486, Addgene, Watertown, Mass., United States of America) were used to investigate the efficacy of SACLAC in NOD-scid […] (NSG) mice (Jackson Laboratories, Bar Harbor, Me., United States of America). Maximum tolerated dose and pharmacokinetic studies were also performed to determine safety and delivery of compound.
For the U937 model, 1×10^4 luciferase and tdTomato-expressing U937 cells in […] were introduced into 6- to 8-week-old female NSG mice via tail-vein injections. After six days, engraftment was confirmed as stated above. Mice were equally randomized into two groups of five mice and treated with vehicle or SACLAC at 5 mg/kg/day five times per week for 15 total injections. […]
Red blood cells (RBC) were lysed with RBC Lysis Buffer (#420301, BioLegend, San Diego, Calif., United States of America) followed by cell surface staining with anti-human CD45 antibodies (#304014, clone HI30, BioLegend, San Diego, Calif., United States of America) and 7AAD (#420404, BioLegend, San Diego, Calif., United States of America) to detect viable human white blood cells (WBC) using an LSR II flow cytometer and BD FACS Diva software. […] Percentage of YFP, tdTomato or hCD45 positive cells was determined in FlowJo software (Becton Dickinson, Franklin Lakes, N.J., United States of America). […]

CCCCCCCCCCCCCCC[C@@H](O)[C@H](CO)NC(=O)CCl [SACLAC, N-[(2S,3R)-1,3-dihydroxyoctadecan-2-yl]2-chloroacetamide]
AC activity reduced by (acid ceramidase (AC); HL-60/VCR): 98%
AC activity reduced by (acid ceramidase (AC); OCI-AML2): 100%
AC activity reduced by (acid ceramidase (AC); THP-1): 71%
EC50 (30 human AML cell lines; read-out: average EC50 across 30 human AML cell lines): 3.2 µM
EC50 (30 human AML cell lines; Homo sapiens, 48 h, read-out: average EC50 across 30 human AML cell lines): ~3 µM
EC50 (30 human AML cell lines; Homo sapiens, 48 h, read-out: EC50 of 25 of 30 cell lines, 25 of 30 cell lines): < 5 µM
apoptosis (OCI-AML2 cells; 12 hours): 79%
apoptosis (OCI-AML2 cells; 24 hours): nearly all cells undergoing apoptosis
reduction in leukemic cells in the bone marrow (U937 AML cells): up to 50%
